# Tested on: Vero cells
# Test: Luciferase assay of total cellular ATP
# Type: cell-based, African green monkey
# Conditions: 5 μM ouabain, 0.4, 0.8 and 1.1% BREATHOX POWDER, 1 h
# Experimental: Then to see the available ATP a luciferase assay was performed. Changes of the total concentration of ATP in Vero cells exposed to increasing concentrations of NaCl for 1 or 72 h was determined by plate microfluorimetry recordings with the FlexStation III microplate reader and the ATP Assay Kit (SIGMA-ALDRICH) following the manufacturer's instructions. The kit provides extremely sensitive results, detecting ATP release of 10-100 mammalian cells/well, based on the firefly luciferase-catalyzed oxidation of D-luciferin in the presence of ATP, which the amount of ATP is quantified by the amount of light (hv) produced. Recordings of the luminescence intensity of 5×10^4 cells in black clear bottom of 96 wells plates were acquired at rest (point 0 h), 1 h, 24 h and 72 h after NaCl challenge (depolarizing agent).
# In order to test whether the reduced level of ATP was caused by the increased activity of Na+/K+ ATPase transporter, Vero cells were treated with 0.4, 0.8 and 1.1% of BREATHOX® POWDER in presence or absence of 5 μM ouabain (Na+/K+ ATPase transporter inhibitor). Changes in total ATP concentration in Vero cells exposed to increasing concentrations of BREATHOX® POWDER with or without 5 μM ouabain for 1 hour was determined by plate microfluorimetry recordings with the FlexStation III microplate reader and the ATP Assay Kit (SIGMA-Aldrich) following the manufacturer's instructions. […]
smiles,measurement,value
C[C@@H]1O[C@@H](O[C@H]2C[C@@H](O)[C@]3(CO)[C@H]4[C@H](O)C[C@]5(C)[C@@H](C6=CC(=O)OC6)CC[C@]5(O)[C@@H]4CC[C@]3(O)C2)[C@H](O)[C@H](O)[C@H]1O [ouabain],decrease in ATP level caused by BREATHOX POWDER,significantly reversed

# From patent publication US20260283946A1, “PHARMACEUTICAL DRY POWDER COMPOSITION AND METHODS FOR TREATING RESPIRATORY TRACT INFECTIONS” (priority 2022, published 2026)
